Measurements: patent publication US8008506B2, “Indazole compounds” (priority 2008, dated 2011)
Converted amounts (≈) assume the structure as drawn.

How the values were obtained:
[1] = Test Example 13: stability in pure water; format: physicochemical
Protocol: Test on Stability in Pure Water
(§1) A test compound is prepared in pure water to be in the saturated state. This solution is shaken for one hour at room temperature. After the shaking, the entire amount of the solution is transferred into a filter tube, and the solution is filtered by centrifugation. The filtrate is analyzed by HPLC immediately after filtration, 24 hours after filtration, and 48 hours after filtration. The stability of the test compound is determined using a calibration curve, based on the peak area value.
(§2) A standard solution is prepared by precisely weighing each test compound, and preparing a solution that sufficiently dissolves in pure water. The calibration curve is produced by assigning the concentration of the standard solution to the horizontal axis, and assigning the HPLC area peak at the concentration to the vertical axis.
(§3) YMC-Pack C18 (4.6 mm×150 mm) (manufactured by YMC Co., Ltd.) is used as a separating column. The detection is performed with UV-254 nm. The temperature in the column is set at 40° C. Elution is carried out at a flow rate of 1 ml/min, using solution A=water [containing 0.1% (v/v) acetic acid] and solution B=acetonitrile as the solvents, under the conditions in which a linear gradient of the solution B is run from 5 to 98% (v/v) from zero minute to 20 minute, subsequently solution B is eluted at 98% up to 25 minute, and the solution B is eluted at 5% from 25.01 minute to 35 minute.

[2] = Test Example 10: saturation solubility in pure water; format: physicochemical; conditions: thermodynamic from solid, room temperature, shaken one hour
Protocol: Saturation Solubility in Pure Water
as §1, with “HPLC,” for “HPLC immediately after filtration, 24 hours after filtration,”, “the saturation solubility” for “48 hours after filtration. The stability”
as §2
as §3, with “nm.” for “nm. The temperature in the column is set at 40° C.”

[3] = Test Example 11: solubility in hydrochloric acid buffer solution at pH 1.2; format: physicochemical; conditions: simulated gastric fluid, thermodynamic from solid; hydrochloric acid buffer solution at pH 1.2, 37° C., one hour, 1 mg/mL nominal
Protocol: Test on Solubility in Hydrochloric Acid Buffer Solution at pH 1.2
A test compound is precisely weighed to 500 μg, and a hydrochloric acid buffer solution at pH 1.2 is added thereto to a concentration of 1 mg/mL. The solution is shaken at 37° C. for one hour. After the shaking, the entire amount of the solution is transferred into a filter tube, and the solution is filtered by centrifugation. The filtrate is analyzed by HPLC, and the solubility of the test compound is determined by dividing the peak area value of the filtrate by the peak area value of the standard solution.
The standard solution is prepared by precisely weighing 500 μg of the test compound, and dissolving the test compound in DMSO to a concentration of 1 mg/mL.
as §3, with “nm.” for “nm. The temperature in the column is set at 40° C.”, “[…]” for “35”

[4] = biological target: T1, human β1 adrenergic receptor (Homo sapiens, UniProt P08588); assay: Test Example 2-A: human β1 adrenergic receptor agonist activity (method of Test Example 1-A); format: cell-based; conditions: Table 1; for β1 receptor EC50: Test Example 2-A; for β1 receptor I.A.: maximum response to isoproterenol taken as 100%
T1 construct: expressed in transfected cells; host or cells: CHO (Chinese Hamster Ovary) cells, pcDNA3
Protocol: The measurement of human β3 adrenergic receptor agonist activity is carried out using CHO (Chinese Hamster Ovary) cells transfected with pcDNA3 (manufactured by Invitrogen, Inc.) to which human β3 gene has been inserted. […] This human β3 cDNA fragment is used as a probe, and the full length human β3 gene is obtained from a human genomic library (manufactured by Clontech Laboratories, Inc.). The above cells are cultured in Ham's F-12 medium containing 10% fetal bovine serum and 400 μg/ml geneticin (manufactured by Invitrogen, Inc.). These cells are seeded on a 24-well plate to a concentration of 1×10^5 cells/well, and after being cultured for about 20 hours, the cells are left to stand in serum-free Ham's F-12 medium for 2 hours. A test compound is initially dissolved in DMSO, and then is diluted stepwise with Ham's F-12 containing 20 mmol/L HEPES, 1 mmol/L isobutylmethylxanthine, and 1 mmol/L ascorbic acid. The dilution is added to the cells. After the cells are cultured for 30 minutes, and then the medium is removed, followed by addition of 0.1 ml of 1 N NaOH to the cells. The cells are left to stand for 20 minutes, and then are added with 0.1 ml of 1 N acetic acid and are stirred. The resulting cell lysate is centrifuged, and then is subjected to quantification of cAMP with cAMP EIA kit (manufactured by Cayman Chemical Co.). […] Measurement of Human β1 Adrenergic Receptor Agonist Activity

T1 sequence (P08588 whole entry): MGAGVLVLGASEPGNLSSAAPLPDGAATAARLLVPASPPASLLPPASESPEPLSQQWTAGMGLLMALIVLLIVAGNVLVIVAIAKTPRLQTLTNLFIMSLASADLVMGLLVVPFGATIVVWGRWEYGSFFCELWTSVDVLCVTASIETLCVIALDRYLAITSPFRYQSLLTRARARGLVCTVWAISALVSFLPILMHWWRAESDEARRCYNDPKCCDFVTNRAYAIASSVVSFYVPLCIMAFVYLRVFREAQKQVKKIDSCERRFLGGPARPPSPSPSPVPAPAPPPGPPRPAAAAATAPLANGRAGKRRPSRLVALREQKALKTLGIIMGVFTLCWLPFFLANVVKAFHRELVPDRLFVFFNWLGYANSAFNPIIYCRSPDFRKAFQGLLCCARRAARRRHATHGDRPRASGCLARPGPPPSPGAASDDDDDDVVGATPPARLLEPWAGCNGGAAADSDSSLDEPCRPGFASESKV

Compound | HPLC area percent ([1]; after 24 hours) | HPLC area percent ([1]; after 48 hours) | HPLC area percent ([1]; immediately after filtration) | solubility at 1 h [2] | solubility at 1 h [3] | β1 receptor EC50 [4] | β1 receptor I.A. [4]
CS(=O)(=O)Nc1cccc([C@@H](O)CNCCOc2ccc3c(C(F)(F)F)n[nH]c3c2)c1 [Example 4, (R)-N-(3-(1-hydroxy-2-(2-(3-trifluoromethylindazol-6-yloxy)ethylamino)ethyl)phenyl)methanesulfonamide] | 98.7% | 98.6% | 98.7% | 71 mg/mL (≈ 155 mM) | 0.963 mg/mL (≈ 2.1 mM) |  | 
CC(C)c1n[nH]c2cc(OCCNC[C@H](O)c3cccc(NS(C)(=O)=O)c3)ccc12 [Example 1, (R)-N-(3-(1-hydroxy-2-(2-(3-isopropylindazol-6-yloxy)ethylamino)ethyl)phenyl)methanesulfonamide] | 99.8% | 99.8% | 100% |  | ≥ 1 mg/mL |  | 
CN(C)C(=O)CCc1n[nH]c2cc(OCCNC[C@H](O)c3cccc(NS(C)(=O)=O)c3)ccc12 [Example 5, (R)-3-(6-(2-(2-hydroxy-2-(3-(methylsulfonamido)phenyl)ethylamino)ethoxy)-indazol-3-yl)-N,N-dimethylpropanamide] |  |  |  | 491 mg/mL (≈ 1000 mM) | ≥ 1 mg/mL | a) | 3.3%
COCc1n[nH]c2cc(OCCNC[C@H](O)c3cccc(NS(C)(=O)=O)c3)ccc12 [Example 6, (R)-N-(3-(1-hydroxy-2-(2-(3-methoxymethylindazol-6-yloxy)ethylamino)ethyl)phenyl)methanesulfonamide] |  |  |  |  | ≥ 1 mg/mL | a) | 3.3%
CCc1n[nH]c2cc(OCCNC[C@H](O)c3cccc(NS(C)(=O)=O)c3)ccc12 [Example 2, (R)-N-(3-(1-hydroxy-2-(2-(3-ethylindazol-6-yloxy)ethylamino)ethyl)phenyl)methanesulfonamide] | 98.2% | 98.2% | 98.2% | 204 mg/mL (≈ 487 mM) | ≥ 1 mg/mL | a) | 8.1%
CCCc1n[nH]c2cc(OCCNC[C@H](O)c3cccc(NS(C)(=O)=O)c3)ccc12 [Example 3, (R)-N-(3-(1-hydroxy-2-(2-(3-propylindazol-6-yloxy)ethylamino)ethyl)phenyl)methanesulfonamide] |  |  |  | 50 mg/mL (≈ 116 mM) |  |  | 
